Test results published in ChEMBL document CHEMBL1201862, “PubChem BioAssay data set” (2004).
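Protocol summary: plate cells (96-well), add compound at 5 concentrations, incubate 48 h, interpolate endpoints linearly. Here, GI50 denotes the concentration required for 50% inhibition of growth.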 Activity calls are given as the source filed them. Cut-off read from the data, not from the text of the source: active = GI50 up to about 1.1 µM and inactive = higher.

Columns and labels:
Assay in all cases: NCI anticancer screen, dose series, 48 h
KM12 = system: KM12
OVCAR-8 = system: OVCAR-8
MDA-MB-435 = system: MDA-MB-435
SF-295 = system: SF-295
IGROV-1 = system: IGROV-1
M14 = system: M14
SK-MEL-5 = system: SK-MEL-5
MDA-MB-231 = system: MDA-MB-231
A549 = system: A549
SW-620 = system: SW-620
NCI/ADR-RES = system: NCI/ADR-RES
HCT-116 = system: HCT-116
SK-OV-3 = system: SK-OV-3
OVCAR-4 = system: OVCAR-4
HT-29 = system: HT-29
CCRF-CEM = system: CCRF-CEM
Hs-578T = system: Hs-578T
RXF 393 = system: RXF 393
K562 = system: K562
UACC-62 = system: UACC-62

| SMILES | GI50 (KM12) | GI50 (OVCAR-8) | GI50 (MDA-MB-435) | GI50 (SF-295) | GI50 (IGROV-1) | GI50 (M14) | GI50 (SK-MEL-5) | GI50 (MDA-MB-231) | GI50 (A549) | GI50 (SW-620) | GI50 (NCI/ADR-RES) | GI50 (HCT-116) | GI50 (SK-OV-3) | GI50 (OVCAR-4) | GI50 (HT-29) | GI50 (CCRF-CEM) | GI50 (Hs-578T) | GI50 (RXF 393) | GI50 (K562) | GI50 (UACC-62) |
| --- | --- | --- | --- | --- | --- | --- | --- | --- | --- | --- | --- | --- | --- | --- | --- | --- | --- | --- | --- | --- |
| Cc1ccc(Nc2ncnc3sc(SCc4ccccc4)nc23)cc1 | > 100 µM (inactive) | > 100 µM (inactive) | > 100 µM (inactive) | 74.8 µM (inactive) | > 100 µM (inactive) | > 100 µM (inactive) | 82.6 µM (inactive) | > 100 µM (inactive) | 88.9 µM (inactive) | > 100 µM (inactive) | > 100 µM (inactive) | > 100 µM (inactive) | > 100 µM (inactive) | > 100 µM (inactive) | 36.1 µM (inactive) | > 100 µM (inactive) | > 100 µM (inactive) | 84.9 µM (inactive) | > 100 µM (inactive) |  |
| CCOC(=O)c1nc2ccc(C(F)(F)F)cc2nc1Oc1ccc(C(=O)OC)cc1 | 56.4 µM (inactive) | > 100 µM (inactive) | 71.1 µM (inactive) | 54.8 µM (inactive) | 59.4 µM (inactive) | 57.1 µM (inactive) | 43.1 µM (inactive) | 80.7 µM (inactive) |  | > 100 µM (inactive) | > 100 µM (inactive) | > 100 µM (inactive) | > 100 µM (inactive) | 98.4 µM (inactive) | 81.7 µM (inactive) | > 100 µM (inactive) | 33.2 µM (inactive) | 64.6 µM (inactive) | > 100 µM (inactive) | 59.4 µM (inactive) |
| CC1=C(C)CC2(C=C(C(C)(C)C)C(=O)C(C(C)(C)C)=C2)SC1 | 19.1 µM (inactive) |  | 19.5 µM (inactive) | 16 µM (inactive) | 13.9 µM (inactive) | 24.7 µM (inactive) | 13.2 µM (inactive) | 14.3 µM (inactive) | 21.9 µM (inactive) | 18.2 µM (inactive) | 19.1 µM (inactive) | 28.4 µM (inactive) | 25 µM (inactive) | 26.7 µM (inactive) | 19.9 µM (inactive) | 19.8 µM (inactive) | 16.9 µM (inactive) | 18.5 µM (inactive) | 30.3 µM (inactive) | 29.2 µM (inactive) |
| CC1=NN2C(=N)/C(=C/c3ccco3)C(=O)N=C2S1 | > 100 µM (inactive) | > 100 µM (inactive) | > 100 µM (inactive) | > 100 µM (inactive) | > 100 µM (inactive) | > 100 µM (inactive) | > 100 µM (inactive) | > 100 µM (inactive) | > 100 µM (inactive) | > 100 µM (inactive) | > 100 µM (inactive) | > 100 µM (inactive) | > 100 µM (inactive) | > 100 µM (inactive) | > 100 µM (inactive) | > 100 µM (inactive) | > 100 µM (inactive) | > 100 µM (inactive) | > 100 µM (inactive) | > 100 µM (inactive) |
| CC(C)/C(Cl)=N/OC(=O)Nc1ccc(OC(F)(F)F)cc1 | 16.6 µM (inactive) | 18.1 µM (inactive) | 12.6 µM (inactive) | 18.5 µM (inactive) | 16.5 µM (inactive) | 3.78 µM (inactive) | 7.14 µM (inactive) | 15.6 µM (inactive) | 17 µM (inactive) | 1.77 µM (inactive) | 17 µM (inactive) | 6.65 µM (inactive) | 17.6 µM (inactive) | 4.19 µM (inactive) | 18.6 µM (inactive) | 1.27 µM (inactive) | 15.8 µM (inactive) | 4.03 µM (inactive) | 1.76 µM (inactive) | 16.3 µM (inactive) |
| Cn1c(=S)c2nc(SCCN3C(=O)c4ccccc4C3=O)[nH]c2n(C)c1=O | > 100 µM (inactive) | > 100 µM (inactive) | > 100 µM (inactive) | > 100 µM (inactive) | 30.1 µM (inactive) | > 100 µM (inactive) | > 100 µM (inactive) | > 100 µM (inactive) | > 100 µM (inactive) | > 100 µM (inactive) | > 100 µM (inactive) | > 100 µM (inactive) | > 100 µM (inactive) | > 100 µM (inactive) | > 100 µM (inactive) | 17.3 µM (inactive) | > 100 µM (inactive) | > 100 µM (inactive) | > 100 µM (inactive) | > 100 µM (inactive) |
| Cc1ccc(/C(Cl)=C/C=C(C#N)C#N)cc1 | 5.22 µM (inactive) | 3.16 µM (inactive) | 2.47 µM (inactive) | 13.3 µM (inactive) | 3.59 µM (inactive) | 2.51 µM (inactive) | 1.8 µM (inactive) | 2.64 µM (inactive) | 21.9 µM (inactive) | 1.91 µM (inactive) | 2.18 µM (inactive) | 1.83 µM (inactive) | 5.78 µM (inactive) | 3.22 µM (inactive) | 2.59 µM (inactive) | 0.441 µM (active) | 2.16 µM (inactive) | 2.61 µM (inactive) | 0.817 µM (active) | 4.51 µM (inactive) |
| N=c1nc2n(cc1F)[C@@H]1O[C@H](CO)[C@@H](O)[C@@H]1O2 | > 100 µM (inactive) | 1.04 µM (active) | 0.658 µM (active) | 49.9 µM (inactive) | 47.4 µM (inactive) | 1.45 µM (inactive) | 35.4 µM (inactive) | > 100 µM (inactive) | 0.335 µM (active) | > 20.5 µM (inactive) | 9.59 µM (inactive) | 1.31 µM (inactive) | 8.55 µM (inactive) | > 100 µM (inactive) | 34.4 µM (inactive) | < 0.0122 µM (active) | > 100 µM (inactive) | > 40.7 µM (inactive) | 4.33 µM (inactive) | > 92.5 µM (inactive) |
| COC(=O)c1ccc(NCc2cc(O)ccc2O)cc1O | 3.28 µM (inactive) | 3.29 µM (inactive) | 11.1 µM (inactive) | 12.9 µM (inactive) | 8.97 µM (inactive) | 16.5 µM (inactive) | 12.6 µM (inactive) | 11 µM (inactive) | 12.2 µM (inactive) | 6.55 µM (inactive) | 1.85 µM (inactive) | 17.5 µM (inactive) | 13.9 µM (inactive) | 13.2 µM (inactive) | 17.2 µM (inactive) | 0.877 µM (active) | 15.7 µM (inactive) | 7.28 µM (inactive) | 4.1 µM (inactive) | 13.1 µM (inactive) |
| Cc1cc(S(=O)(=O)Nc2nc(N)n[nH]2)c(S)cc1Cl | > 10 µM (inactive) | > 10 µM (inactive) | > 10 µM (inactive) | > 10 µM (inactive) | > 10 µM (inactive) | > 10 µM (inactive) | > 10 µM (inactive) | > 10 µM (inactive) | > 10 µM (inactive) | > 10 µM (inactive) | > 10 µM (inactive) | > 10 µM (inactive) | > 10 µM (inactive) | > 10 µM (inactive) | > 10 µM (inactive) | > 10 µM (inactive) | > 10 µM (inactive) | > 10 µM (inactive) | > 10 µM (inactive) | > 10 µM (inactive) |
| O=C(NN=C(c1ccccc1)c1ccccc1)/C(O)=C/C(=O)c1ccc(Cl)cc1 | 45 µM (inactive) | 30.1 µM (inactive) | 69.3 µM (inactive) | 34.7 µM (inactive) | 27.7 µM (inactive) | > 100 µM (inactive) | 29.1 µM (inactive) | 11.9 µM (inactive) | 27.7 µM (inactive) |  | 20.7 µM (inactive) | 31.5 µM (inactive) | 73.3 µM (inactive) | 45.4 µM (inactive) | 44.3 µM (inactive) | 24.4 µM (inactive) | 27.2 µM (inactive) | 35.2 µM (inactive) | 43.5 µM (inactive) | 39.1 µM (inactive) |
| CCCCSC1=N/C(=C\c2ccc(N(C)C)cc2)C(=O)N1 | 18 µM (inactive) | 54.1 µM (inactive) | 28.6 µM (inactive) | 28.4 µM (inactive) | 35.3 µM (inactive) | 38.9 µM (inactive) | 50.5 µM (inactive) | 24 µM (inactive) | 17.3 µM (inactive) | 48.2 µM (inactive) | 82.6 µM (inactive) | 25 µM (inactive) | 41.2 µM (inactive) | 21 µM (inactive) | 11.9 µM (inactive) | > 100 µM (inactive) | 25.2 µM (inactive) | 30 µM (inactive) | 44.8 µM (inactive) | 20.7 µM (inactive) |
| CCCCCCCCCCCCCCCC(=O)OCC1OC(OC)C(NC(=O)N(CCCl)N=O)C(O)C1O (stereo not given) | 19 µM (inactive) | 15.5 µM (inactive) | 16.7 µM (inactive) | 4.48 µM (inactive) | 18.1 µM (inactive) | 16.8 µM (inactive) | 21.1 µM (inactive) | 17.9 µM (inactive) | 9.68 µM (inactive) | 9.48 µM (inactive) | 13.9 µM (inactive) | 13 µM (inactive) | 21.8 µM (inactive) | 20 µM (inactive) | 14.5 µM (inactive) | 7.36 µM (inactive) | 23 µM (inactive) | 16.7 µM (inactive) | 10.7 µM (inactive) | 2.02 µM (inactive) |
| C=CC(C)(C)/C=C/c1ccc(O)cc1 | 39.3 µM (inactive) | 39.7 µM (inactive) | 37.9 µM (inactive) | 27 µM (inactive) | 44 µM (inactive) | 43.1 µM (inactive) | 38.5 µM (inactive) | 36.4 µM (inactive) | 29.1 µM (inactive) | 33.3 µM (inactive) | 47.9 µM (inactive) | 31.3 µM (inactive) | 49.7 µM (inactive) | 55.5 µM (inactive) | 38.2 µM (inactive) | 39.3 µM (inactive) | 39.2 µM (inactive) | 24.8 µM (inactive) |  | 42.7 µM (inactive) |
